Publication PMC3596309 (2013)

Key:
[1] = system: wtTel26 (DNA, G4) TTAGGGTTAGGGTTAGGGTTAGGGTT; assay: CD melting at 290 nm; settings: 20 mM KCl; 10 mM Tris, pH 7.5; 4 µM DNA, complex at 2:1 molar ratio
[2] = system: Tel22 (DNA, G4) AGGGTTAGGGTTAGGGTTAGGG; assay: ITC; settings: 20 mM KCl; 10 mM Tris, pH 7.5, 37°C; one set of equivalent sites
[3] = system: wtTel26 (DNA, G4) TTAGGGTTAGGGTTAGGGTTAGGGTT; assay: ITC; settings: 20 mM KCl; 10 mM Tris, pH 7.5, 25°C; one set of equivalent sites
[4] = system: Tel26 (DNA, G4) AAAGGGTTAGGGTTAGGGTTAGGGAA; assay: ITC; settings: 20 mM KCl; 10 mM Tris, pH 7.5, 25°C; site 1 of 2; two sequential sites
[5] = system: Tel26 (DNA, G4) AAAGGGTTAGGGTTAGGGTTAGGGAA; assay: CD melting at 290 nm; settings: 20 mM KCl; 10 mM Tris, pH 7.5; 4 µM DNA, complex at 2:1 molar ratio
[6] = system: scT22 (DNA, single strand) GGATGTGAGTGTGAGTGTGAGG; assay: CD titration; settings: 20 mM KCl; 10 mM Tris, pH 7.5, 25°C; 4 µM DNA; two bases per metal complex; per base
[7] = system: Tel22 (DNA, G4) AGGGTTAGGGTTAGGGTTAGGG; assay: CD melting at 290 nm; settings: 20 mM KCl; 10 mM Tris, pH 7.5; 4 µM DNA, complex at 2:1 molar ratio

ΔTm [1]: 15.2 °C | Ka [2]: 35.1 ± 0.6 × 10^5 M^-1 | Ka [3]: 4.7 ± 1.7 × 10^5 M^-1 | Ka [4]: 8.7 ± 3.3 × 10^5 M^-1 | ΔTm [5]: 13.8 °C | Ka [6]: 270000 M⁻¹ | ΔTm [7]: 10.4 °C
SMILES: CN(C)CCNCc1ccnc2c1ccc1cccnc12.CN(C)CCNCc1ccnc2c1ccc1cccnc12.[Ni+2]
